From patent US20230390406A1, “Star Polymer Drug Conjugates” (Vaccitech North America, Inc., priority 2020, published 2023)
Where a SMILES comes first, the peptide text is derived from it.

Columns and labels:
human cathepsin B = target: T1, human cathepsin B (Homo sapiens, UniProt P07858); experiment: Cleavage of AMC-peptides by cathepsin B (HPLC, 350 nm); type: biochemical; conditions: pH 5, 37° C., up to 6 hrs
T1 construct: purchased Sino Biological
Method: (§1) A series of peptide-based small molecules were screened in vitro to characterize their lability in human cathepsin B and mouse plasma enzymes. The screening protocol was adapted from literatures^1,2 and is shown below in FIGS. 31 and 32. In short, a small library of peptides conjugated to 7-amino-4-methylcoumarin (AMC-peptides) were synthesized by standard solid-phase peptide synthesis (SPPS) by Genscript (Piscataway, NJ), as summarized in the Table 18. They were first dissolved in DMSO as 10 mM stock solution and then incubated in the presence of PBS buffer (Gibco, 10010-031), cathepsin B (Sino Biological, protein human recombinant), and mouse plasma (BioIVT, C57BL/6 li-hep pooled, female). Substrates of either cathepsin B or plasma enzymes (and not PBS) afforded cleavage of the peptide-AMC bond. The resultant free AMC elutes at a different time from the parent AMC-conjugated peptides on the HPLC, thereby the linker degradation was monitored and quantified over time (i.e., 5 min, 1 hr and 6 hrs). PBS buffer solution was used as the matrix for the negative control. Cleavage of cathepsin B substrate Ill (Millipore Sigma, 219392) served as the positive control.
(§2) The stability of the analyte peptide was determined by the comparing the area-under-curve (AUC) of analyte peaks at 350 nm following formula: […]

mouse plasma enzymes = experiment: Stability of AMC-peptides in mouse plasma (HPLC, 350 nm); type: in vitro ADME; conditions: up to 6 hrs
Method: Peptide linker stock solutions (10 mM in DMSO) are diluted to 1 mM and then incubated with mouse plasma; aliquots are removed, blood proteins are precipitated with cold acetonitrile, pelleted with centrifugation, and the supernatant analyzed by HPLC.
as §1, §2

[1] = Particle / hydrodynamic size (Rh, Dh) by dynamic light scattering; type: physicochemical
Method: Samples were suspended at 0.5 mg/mL in PBS pH 7.4 and particle size was determined using dynamic light scattering (Malvern ZetaSizer Ultra).

CT26 tumors = experiment: CT26 tumor model, single intratumoral injection of 35 nmol STINGa; type: in vivo, BALB/c mice; conditions: 35 nmol STINGa IT, versus vehicle or free STINGa
Method: Tumor size was measured by digital calipers (FIG. 11B) and survival (FIG. 11C) were assessed up to 80 days after tumor implantation.
To assess the impact of linkage on efficacy in vivo, select compositions were tested in tumor-bearing mice (FIG. 11). The study design is shown in (FIG. 11A). BALB/c mice were implanted subcutaneously with 10^5 cells of the syngeneic tumor line CT26 on day 0. Tumors were allowed to grow until all mice in the study had palpable tumors. On day 12, mice were treated with a single intratumoral (IT) injection of 35 nmol of the STINGa as either (i) Compound 56 (amide linkage); (ii) Compound 94 hydrazone (Hz) linkage; or (iii) the free STINGa. An additional group of mice was treated with the formulation vehicle (7% DMSO in PBS) as a negative control. Tumors were measured biweekly to track tumor growth after treatment.

MC38 tumors = experiment: MC38 tumor model, single intratumoral injection of 7 nmol STINGa (diABZI); type: in vivo, C57BL/6 mice; conditions: 7 nmol STINGa IT day 11, versus vehicle / untreated
Method: (§3) Tumor size was measured by digital calipers for up to 30 days after tumor implantation (FIG. 12 B & C). To assess acute toxicity, mice were bled 4 hours after treatment, and blood IP-10 concentration was assessed by ELISA (FIG. 12D).
(§4) To further assess the impact of linkage on efficacy and tolerability in vivo, select compositions of the Compound listed in Table 9 were evaluated in tumor-bearing mice (FIG. 12). The study design is shown in (FIG. 12A). […] Tumors were allowed to grow until all mice in the study had palpable tumors. On day 11, mice were treated with a single intratumoral (IT) injection of 7 nmol of STINGa (diABZI) as either Compound 56, Compound 94, Compound 95, Compound 96 or Compound 97 in PBS. As a control, a group of mice was treated with the formulation vehicle (7% DMSO in PBS). Tumors were measured biweekly to track tumor growth after treatment. Tolerability was assessed by measuring the amount of Interferon-gamma-induced protein 10 (IP-10) in the serum of animals 4 hours after intratumoral injection.

[2] = system: Interferon-gamma-induced protein 10 (IP-10); experiment: Serum IP-10 (ELISA) 4 hours after intratumoral injection (tolerability); type: in vivo, C57BL/6 mice; conditions: 4 hours after 7 nmol IT
Method: as §3, §4

[3] = Turbidity (OD 490 nm) / solubility in PBS buffer at different pH; type: physicochemical

Compound	stability / cleavage in the presence of cathepsin B (human cathepsin B)	stability in mouse plasma (mouse plasma enzymes)	Rh (nm) at pH 7.4 [1]	other results
CCC(NC(=O)[C@@H](NC(=O)[C@@H]1CCCN1C(=O)[C@H](CO)NC(=O)CCNC(C)=O)C(C)C)C(=O)Nc1ccc2c(C)cc(=O)oc2c1 (some centres unmarked) [AI, Ac-A′SPVB-AMC] (HELM PEPTIDE1{[ac].[bAla].S.P.V.[CCC(N[*:1])C(=O)[*:2]].[Cc1cc(=O)oc2cc(N[*:1])ccc12]}$$$$V2.0)	metabolized quickly	metabolized quickly	–	–
CCC(NC(=O)[C@H](CO)NC(=O)[C@H](CCCCN)NC(=O)[C@H](CO)NC(=O)CCNC(C)=O)C(=O)Nc1ccc2c(C)cc(=O)oc2c1 (some centres unmarked) [AL, Ac-A′SKSB-AMC] (HELM PEPTIDE1{[ac].[bAla].S.K.S.[CCC(N[*:1])C(=O)[*:2]].[Cc1cc(=O)oc2cc(N[*:1])ccc12]}$$$$V2.0)	readily cleaved	significant stability	–	–
CCCCC(NC(=O)[C@@H](NC(=O)CCNC(C)=O)C(C)C)C(=O)Nc1ccc2c(C)cc(=O)oc2c1 (some centres unmarked) [AM, Ac-A′VnL-AMC] (HELM PEPTIDE1{[ac].[bAla].V.[CCCCC(N[*:1])C(=O)[*:2]].[Cc1cc(=O)oc2cc(N[*:1])ccc12]}$$$$V2.0)	metabolized quickly	metabolized quickly	–	–
CCCC[C@H](NC(=O)[C@@H](NC(=O)[C@@H]1CCCN1C(=O)[C@H](CO)NC(=O)CCNC(C)=O)C(C)C)C(=O)Nc1ccc2c(C)cc(=O)oc2c1 [AN, Ac-A′SPVnL-AMC] (HELM PEPTIDE1{[ac].[bAla].S.P.V.[Nle].[Cc1cc(=O)oc2cc(N[*:1])ccc12]}$$$$V2.0)	metabolized quickly	metabolized quickly	–	–
CCCC[C@H](NC(=O)[C@H](CO)NC(=O)[C@H](CCCCNC(C)=O)NC(=O)[C@H](CO)NC(=O)CCNC(C)=O)C(=O)Nc1ccc2c(C)cc(=O)oc2c1 [AO, Ac-A′SK(Ac) SnL-AMC] (HELM PEPTIDE1{[ac].[bAla].S.K.S.[Nle].[Cc1cc(=O)oc2cc(N[*:1])ccc12]}|PEPTIDE2{[ac]}$PEPTIDE1,PEPTIDE2,4:R3-1:R2$$$V2.0)	readily cleaved	significant stability	–	–
CCCCC(NC(=O)[C@H](CO)NC(=O)[C@H](CCCCN)NC(=O)[C@H](CO)NC(=O)CCNC(C)=O)C(=O)Nc1ccc2c(C)cc(=O)oc2c1 (some centres unmarked) [AP, Ac-A′SKSnL-AMC] (HELM PEPTIDE1{[ac].[bAla].S.K.S.[CCCCC(N[*:1])C(=O)[*:2]].[Cc1cc(=O)oc2cc(N[*:1])ccc12]}$$$$V2.0)	readily cleaved	significant stability	–	–
CC[C@H](NC(=O)[C@@H](NC(=O)CCNC(C)=O)C(C)C)C(=O)Nc1ccc2c(C)cc(=O)oc2c1 [Compound AH, Ac-A′VB-AMC] (HELM PEPTIDE1{[ac].[bAla].V.[Abu].[Cc1cc(=O)oc2cc(N[*:1])ccc12]}$$$$V2.0)	metabolized quickly	metabolized quickly	–	–
CCC(NC(=O)[C@@H](NC(=O)[C@H](CCCCNC(C)=O)NC(=O)[C@H](CO)NC(=O)CCNC(C)=O)C(C)C)C(=O)Nc1ccc2c(C)cc(=O)oc2c1 (some centres unmarked) [Compound AJ, Ac-A′SK(Ac) VB-AMC] (HELM PEPTIDE1{[ac].[bAla].S.K.V.[CCC(N[*:1])C(=O)[*:2]].[Cc1cc(=O)oc2cc(N[*:1])ccc12]}|PEPTIDE2{[ac]}$PEPTIDE1,PEPTIDE2,4:R3-1:R2$$$V2.0)	relatively stable	relatively stable	–	–
CCC(NC(=O)[C@H](CO)NC(=O)[C@H](CCCCNC(C)=O)NC(=O)[C@H](CO)NC(=O)CCNC(C)=O)C(=O)Nc1ccc2c(C)cc(=O)oc2c1 (some centres unmarked) [Compound AK, Ac-A′SK(Ac) SB-AMC] (HELM PEPTIDE1{[ac].[bAla].S.K.S.[CCC(N[*:1])C(=O)[*:2]].[Cc1cc(=O)oc2cc(N[*:1])ccc12]}|PEPTIDE2{[ac]}$PEPTIDE1,PEPTIDE2,4:R3-1:R2$$$V2.0)	readily cleaved	significant stability	–	–
N3-p[(HPMA)-co-(MA-b-Ala-Hz-HA-diABZI)]-Pg [Compound 94]	–	–	10.0 nm	survival (CT26 tumors): improved; tumor control / tumor growth (CT26 tumors): improved tumor control; tumor control (MC38 tumors): improved tumor control; serum IP-10 level compared to free STINGa [2]: similar
N3-p[(HPMA)-co-(MA-b-Ala-PEG4-VZ-PAB-diABZI)]-Pg [Compound 97]	–	–	7.6 nm	tumor control (MC38 tumors): improved tumor control; serum IP-10 level compared to free STINGa [2]: lower
N3-p[(HPMA)-co-(MA-b-Ala-VZ-PAB-diABZI)]-Pg [Compound 96]	–	–	26.9 nm	tumor control (MC38 tumors): improved tumor control; serum IP-10 level compared to free STINGa [2]: lower
N3-p[(HPMA)-co-(MA-b-Ala-cHz-HA-diABZI)]-Pg [Compound 95]	–	–	7.3 nm	tumor control (MC38 tumors): improved tumor control; serum IP-10 level compared to free STINGa [2]: lower
N3-poly(HPMA-co-Ma-b-Ala-2BXy-co-Ma-b-Ala-COOH)-Pg [Compound 48]	–	–	–	Rh (nm) at pH 6.5 [1]: 48.0 nm; Turbidity at pH 6.5 [3]: Aggregate; Turbidity at pH 7.4 [3]: 0.043
N3-poly(HPMA-co-Ma-b-Ala-2BXy-co-Ma-b-Ala-dimethylethylenediamine)-Pg [Compound 52]	–	–	–	Rh (nm) at pH 6.5 [1]: 4.1 nm
N3-poly(HPMA-co-Ma-b-Ala-diABZI)-Pg [Compound 56]	–	–	(aggregate)	survival (CT26 tumors): comparable to the mice that received the vehicle; tumor control / tumor growth (CT26 tumors): comparable to the mice that received the vehicle; tumor control (MC38 tumors): not
N3-poly[(HPMA-co-Ma-b-Ala-2BXy)-b-(HPMA-co-Ma-propyl-NH2)]-Pg [Compound 68]	–	–	6.5 nm	Rh (nm) at pH 6.5 [1]: 5.6 nm
N3-poly[(HPMA-co-Ma-b-Ala-2BXy)-b-HPMA]-Pg [Compound 62]	–	–	6.6 nm	Rh (nm) at pH 6.5 [1]: 6.9 nm; Turbidity at pH 6.5 [3]: 0.039; Turbidity at pH 7.4 [3]: 0.039
PAMAM-g-poly[(HPMA-co-Ma-b-Ala-2BXy)-b-(HPMA-co-Ma-propyl-NH2]-Pg [Compound 80]	–	–	12.4 nm	Turbidity at pH 7.4 [3]: 0.043
PAMAM-g-poly[(HPMA-co-Ma-b-Ala-2BXy)-b-HPMA]-Pg [Compound 78]	–	–	12.9 nm	Turbidity at pH 7.4 [3]: 0.041
